Columns and labels:
Experiment in all cases: combination Emax (second highest fraction inhibited in the dose matrix, 72 h); higher = more inhibition; extreme values may be limits of the assay
[1] = test system: 22RV1 (Prostate Carcinoma)
In short: (§1)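 After 24 hours at 37°C and 5% CO2 in 1536-well plates, cells in DMEM/F12 or RPMI plus 10% FBS received two-drug dose matrices for 72 hours. Viability came from CellTiter-Glo 2.0 luminescence and was scaled as inhibition, anchored at 0 by vehicle wells and at 1 by blank wells. Combination Emax is taken as the second-highest inhibition in the matrix, and Bliss excess as the observed combination effect less EA + EB − EA·EB, with EA and EB the single-agent effects.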

[2] = test system: 5637 (Bladder Carcinoma)
In short: as §1

[3] = test system: A101D (Melanoma)
In short: as §1

[4] = test system: CESS (Acute Myeloid Leukemia)
In short: as §1

[5] = test system: DMS-53 (Small Cell Lung Carcinoma)
In short: as §1

[6] = test system: EPLC-272H (Other Solid Carcinomas)
In short: as §1

[7] = test system: ESO26 (Esophageal Adenocarcinoma)
In short: as §1

[8] = test system: EW-7 (Ewing's Sarcoma)
In short: as §1

[9] = test system: HCC1428 (Breast Carcinoma)
In short: as §1

[10] = test system: HT55 (Colorectal Carcinoma)
In short: as §1

[11] = test system: JIMT-1 (Breast Carcinoma)
In short: as §1

[12] = test system: Jurkat (T-Lymphoblastic Leukemia)
In short: as §1

[13] = test system: KP-N-YN (Neuroblastoma)
In short: as §1

[14] = test system: MDA-MB-436 (Breast Carcinoma)
In short: as §1

[15] = test system: MHH-ES-1 (Ewing's Sarcoma)
In short: as §1

[16] = test system: NCI-H1703 (Squamous Cell Lung Carcinoma)
In short: as §1

[17] = test system: NCI-H441 (Lung Adenocarcinoma)
In short: as §1

[18] = test system: PEO1 (Ovarian Carcinoma)
In short: as §1

[19] = test system: SK-HEP-1 (Hepatocellular Carcinoma)
In short: as §1

[20] = test system: huH-1 (Hepatocellular Carcinoma)
In short: as §1

Row | SMILES | combination Emax [1] | combination Emax [2] | combination Emax [3] | combination Emax [4] | combination Emax [5] | combination Emax [6] | combination Emax [7] | combination Emax [8] | combination Emax [9] | combination Emax [10] | combination Emax [11] | combination Emax [12] | combination Emax [13] | combination Emax [14] | combination Emax [15] | combination Emax [16] | combination Emax [17] | combination Emax [18] | combination Emax [19] | combination Emax [20]
1 | COc1cccc(OCCCN)c1-c1cc(Nc2cnc(C#N)cn2)n[nH]1 [Prexasertib] + O=C(c1cc(Cc2n[nH]c(=O)c3ccccc23)ccc1F)N1CCN(C(=O)C2CC2)CC1 [Olaparib] (first compound max 1 µM, 7x7, partner max 10 µM) | 0.516 | 0.852 | 0.788 | 0.972 | 0.314 | 0.894 | 0.56 | 0.955 | 0.622 | 0.65 | 0.788 | 0.994 | 0.845 | 0.509 | 0.954 | 0.978 | 0.574 | 0.388 | 0.338 | 0.778
2 | Cn1cnc2c(F)c(Nc3ccc(Br)cc3Cl)c(C(=O)NOCCO)cc21 [Selumetinib] + CCN(CCO)CCCOc1ccc2c(Nc3cc(CC(=O)Nc4cccc(F)c4)[nH]n3)ncnc2c1 [AZD2811] (first compound max 10 µM, 7x7, partner max 1 µM) | 0.383 | 0.81 | 0.596 | 0.423 | 0.158 | 0.634 | 0.212 | 0.509 | 0.297 | 0.741 | 0.153 | 0.203 | 0.581 | 0.264 | 0.609 | 0.472 | 0.304 | 0.29 | 0.362 | 0.307
3 | Cn1cnc2c(F)c(Nc3ccc(Br)cc3Cl)c(C(=O)NOCCO)cc21 [Selumetinib] + C[C@@H]1COCCN1C2=NC(=NC(=C2)C3(CC3)[S@](=N)(=O)C)C4=C5C=CNC5=NC=C4 [AZD6738] (first compound max 10 µM, 7x7, partner max 10 µM) | 0.526 | 0.633 | 0.76 | 0.815 | 0.151 | 0.902 | 0.486 | 0.951 | 0.187 | 0.735 | 0.491 | 0.913 | 0.949 | 0.243 | 0.525 | 0.881 | 0.36 | 0.441 | 0.223 | 0.537
4 | CN(C)CCCOc1ccc(-c2ccc3ncc4c(c3c2)n(C2CCOCC2)c(=O)n4C)cn1 [AZD0156] + O=C(c1cc(Cc2n[nH]c(=O)c3ccccc23)ccc1F)N1CCN(C(=O)C2CC2)CC1 [Olaparib] (first compound max 3 µM, partner max 3 µM) | 0.483 | 0.439 | 0.411 | 0.376 | 0.255 | 0.503 | 0.206 | 0.524 | 0.228 | 0.209 | 0.0881 | 0.511 |  | 0.205 | 0.801 | 0.582 | 0.328 | 0.122 | 0.332 | 0.174
5 | Cc1c2c(nn1C)CSCc1cc(n(C)n1)CSc1cc(c3ccccc3c1)OCCCc1c(C(=O)O)n(C)c3c-2c(Cl)ccc13 [AZD5991] + CC1(C)CCC(CN2CCN(c3ccc(C(=O)NS(=O)(=O)c4ccc(NCC5CCOCC5)c([N+](=O)[O-])c4)c(Oc4cnc5[nH]ccc5c4)c3)CC2)=C(c2ccc(Cl)cc2)C1 [Venetoclax] (first compound max 1 µM, 7x7, partner max 1 µM) | 0.462 | 0.217 | 0.989 | 0.525 | 0.828 | 0.901 | 0.151 | 0.487 | 0.987 | 0.13 | 0.215 | 0.888 | 0.817 | 0.0835 | 0.852 |  | 0.214 | 0.164 | 0.45 | 0.162
6 | Cc1c2c(nn1C)CSCc1cc(n(C)n1)CSc1cc(c3ccccc3c1)OCCCc1c(C(=O)O)n(C)c3c-2c(Cl)ccc13 [AZD5991] + CCN(CCO)CCCOc1ccc2c(Nc3cc(CC(=O)Nc4cccc(F)c4)[nH]n3)ncnc2c1 [AZD2811] (first compound max 1 µM, 7x7, partner max 1 µM) | 0.399 | 0.91 | 0.998 | 0.578 | 0.56 | 0.945 | 0.319 | 0.655 | 0.974 | 0.553 |  | 0.919 |  | 0.181 | 0.883 | 0.874 | 0.31 | 0.321 | 0.387 | 0.387
7 | C=CCn1c(=O)c2cnc(Nc3ccc(N4CCN(C)CC4)cc3)nc2n1-c1cccc(C(C)(C)O)n1 [AZD1775] + C1CN(CCC1(C(=O)N[C@@H](CCO)C2=CC=C(C=C2)Cl)N)C3=NC=NC4=C3C=CN4 [Capivasertib] (first compound max 3 µM, partner max 3 µM) | 0.616 | 0.957 | 0.757 | 0.874 | 0.619 | 0.834 | 0.707 | 0.896 | 0.524 | 0.831 | 0.76 | 0.986 |  | 0.41 | 0.833 | 0.911 | 0.454 | 0.773 | 0.503 | 0.666
8 | C=CCn1c(=O)c2cnc(Nc3ccc(N4CCN(C)CC4)cc3)nc2n1-c1cccc(C(C)(C)O)n1 [AZD1775] + C[C@@H]1COCCN1C2=NC(=NC(=C2)C3(CC3)[S@](=N)(=O)C)C4=C5C=CNC5=NC=C4 [AZD6738] (first compound max 1 µM, partner max 10 µM) | 0.636 | 0.898 | 0.749 | 0.937 | 0.221 | 0.882 | 0.399 | 0.944 | 0.49 | 0.782 | 0.76 | 0.991 |  | 0.478 | 0.714 | 0.958 | 0.536 | 0.6 | 0.65 | 0.794
9 | CS(=O)(=O)CCNCc1ccc(-c2ccc3ncnc(Nc4ccc(OCc5cccc(F)c5)c(Cl)c4)c3c2)o1 [Lapatinib] + NC1(c2ccc(-c3nc4ccn5c(=O)[nH]nc5c4cc3-c3ccccc3)cc2)CCC1 [MK-2206] (first compound max 10 µM, 7x7, partner max 10 µM) | 0.835 |  | 0.967 |  | 0.544 |  |  | 0.965 | 0.308 |  |  |  | 0.922 | 0.461 | 0.905 | 0.756 | 0.473 | 0.348 | 0.87 | 
10 | CN(CCO)CC[C@H](CSc1ccccc1)Nc1ccc(S(=O)(=O)NC(=O)c2ccc(N3CCC([C@@H](O)c4ccccc4-c4ccc(Cl)cc4)CC3)cc2)cc1S(=O)(=O)C(F)(F)F [AZD4320] + CN(C)CCCOc1ccc(-c2ccc3ncc4c(c3c2)n(C2CCOCC2)c(=O)n4C)cn1 [AZD0156] (first compound max 1 µM, 7x7, partner max 1 µM) | 0.385 | 0.222 | 0.413 | 0.333 | 0.965 | 0.439 | 0.153 | 0.68 | 0.541 | 0.161 | 0.171 | 0.478 |  | 0.133 | 0.491 | 0.367 | 0.286 | 0.45 | 0.325 | 0.122
11 | CS(=O)(=O)CCNCc1ccc(-c2ccc3ncnc(Nc4ccc(OCc5cccc(F)c5)c(Cl)c4)c3c2)o1 [Lapatinib] + Cn1cnc2c(F)c(Nc3ccc(Br)cc3Cl)c(C(=O)NOCCO)cc21 [Selumetinib] (first compound max 10 µM, 7x7, partner max 10 µM) | 0.464 |  |  |  |  |  |  | 0.731 |  |  |  |  | 0.409 | 0.352 | 0.401 | 0.482 | 0.32 | 0.52 | 0.133 | 
12 | CCc1c2c(nc3ccc(O)cc13)-c1cc3c(c(=O)n1C2)COC(=O)[C@]3(O)CC [SN-38] + O=C(c1cc(Cc2n[nH]c(=O)c3ccccc23)ccc1F)N1CCN(C(=O)C2CC2)CC1 [Olaparib] (first compound max 0.3 µM, 7x7, partner max 10 µM) | 0.697 |  | 0.757 | 0.989 | 0.735 | 0.856 | 0.764 | 0.908 |  | 0.489 | 0.267 |  | 0.491 | 0.546 | 0.978 | 0.882 | 0.709 | 0.725 | 0.665 | 0.794
13 | O=C(c1cc(Cc2n[nH]c(=O)c3ccccc23)ccc1F)N1CCN(C(=O)C2CC2)CC1 [Olaparib] + CC1(C)CCC(CN2CCN(c3ccc(C(=O)NS(=O)(=O)c4ccc(NCC5CCOCC5)c([N+](=O)[O-])c4)c(Oc4cnc5[nH]ccc5c4)c3)CC2)=C(c2ccc(Cl)cc2)C1 [Venetoclax] (first compound max 10 µM, 7x7, partner max 1 µM) | 0.251 |  |  |  |  |  |  | 0.786 |  |  |  |  | 0.728 | 0.277 | 0.86 | 0.18 | 0.113 | 0.146 | 0.73 | 
14 | O=C(c1cc(Cc2n[nH]c(=O)c3ccccc23)ccc1F)N1CCN(C(=O)C2CC2)CC1 [Olaparib] + COc1nnc2ccc(N3CCC(c4ccc(OCCN5CCN(C)C(=O)[C@H]5C)cc4)CC3)nn12 [AZD5153] (first compound max 10 µM, 7x7, partner max 1 µM) | 0.546 |  |  |  |  |  |  | 0.746 |  |  |  |  | 0.521 | 0.316 | 0.905 | 0.571 | 0.353 | 0.361 | 0.752 | 

— the supplement of paper PMC11061612
